Data reported in PMC6069857, “Effects of novel HDAC inhibitors on urothelial carcinoma cells” (Clinical Epigenetics, 2018).

How the values were obtained:
[1] = target: HDAC6 (Homo sapiens, UniProt Q9UBN7); set-up: purchased Reaction Biology Corp. (Malvern, PA); conditions: previously reported; cited from earlier work
[2] = target: T1, HDAC2 (Homo sapiens, UniProt Q92769); experiment: In vitro fluorescence-based HDAC inhibition assay (Reaction Biology); conditions: read-out: IC50 HDAC2; experiment performed once
T1 sequence (Q92769 whole entry): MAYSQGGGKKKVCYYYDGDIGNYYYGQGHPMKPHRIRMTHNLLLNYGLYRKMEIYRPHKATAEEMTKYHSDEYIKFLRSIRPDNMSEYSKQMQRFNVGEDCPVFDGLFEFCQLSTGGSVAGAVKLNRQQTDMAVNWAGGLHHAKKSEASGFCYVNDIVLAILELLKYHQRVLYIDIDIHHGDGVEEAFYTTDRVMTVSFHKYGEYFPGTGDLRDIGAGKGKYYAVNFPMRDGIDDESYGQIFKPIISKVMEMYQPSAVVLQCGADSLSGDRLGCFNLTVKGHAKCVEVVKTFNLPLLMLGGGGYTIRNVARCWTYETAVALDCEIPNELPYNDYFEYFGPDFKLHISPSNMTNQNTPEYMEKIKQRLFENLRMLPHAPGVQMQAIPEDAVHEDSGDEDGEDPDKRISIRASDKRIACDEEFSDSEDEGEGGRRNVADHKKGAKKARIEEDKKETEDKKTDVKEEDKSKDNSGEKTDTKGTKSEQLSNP

[3] = target: T1, HDAC2; set-up: purchased Reaction Biology Corp. (Malvern, PA); conditions: previously reported; given for HDAC1/2 together; cited from earlier work
[4] = tested on: UCCs VM-CUB1, UM-UC-3, and 639-V; conditions: 19i 2 μM, 24 and 48 h
Source text: Caspase activity after inhibitor treatment was quantified by the Caspase-Glo 3/7 assay and normalized to cell viability measured by CellTiter-Glo® reagent (Promega, Mannheim, Germany) as previously described. Briefly, following exposure to inhibitors, defined aliquots of trypsinized cells were transferred to 96-well plates for viability and caspase-3/7 measurements according to the manufacturer’s protocol.

Sequence of HDAC6 (Q9UBN7 whole entry): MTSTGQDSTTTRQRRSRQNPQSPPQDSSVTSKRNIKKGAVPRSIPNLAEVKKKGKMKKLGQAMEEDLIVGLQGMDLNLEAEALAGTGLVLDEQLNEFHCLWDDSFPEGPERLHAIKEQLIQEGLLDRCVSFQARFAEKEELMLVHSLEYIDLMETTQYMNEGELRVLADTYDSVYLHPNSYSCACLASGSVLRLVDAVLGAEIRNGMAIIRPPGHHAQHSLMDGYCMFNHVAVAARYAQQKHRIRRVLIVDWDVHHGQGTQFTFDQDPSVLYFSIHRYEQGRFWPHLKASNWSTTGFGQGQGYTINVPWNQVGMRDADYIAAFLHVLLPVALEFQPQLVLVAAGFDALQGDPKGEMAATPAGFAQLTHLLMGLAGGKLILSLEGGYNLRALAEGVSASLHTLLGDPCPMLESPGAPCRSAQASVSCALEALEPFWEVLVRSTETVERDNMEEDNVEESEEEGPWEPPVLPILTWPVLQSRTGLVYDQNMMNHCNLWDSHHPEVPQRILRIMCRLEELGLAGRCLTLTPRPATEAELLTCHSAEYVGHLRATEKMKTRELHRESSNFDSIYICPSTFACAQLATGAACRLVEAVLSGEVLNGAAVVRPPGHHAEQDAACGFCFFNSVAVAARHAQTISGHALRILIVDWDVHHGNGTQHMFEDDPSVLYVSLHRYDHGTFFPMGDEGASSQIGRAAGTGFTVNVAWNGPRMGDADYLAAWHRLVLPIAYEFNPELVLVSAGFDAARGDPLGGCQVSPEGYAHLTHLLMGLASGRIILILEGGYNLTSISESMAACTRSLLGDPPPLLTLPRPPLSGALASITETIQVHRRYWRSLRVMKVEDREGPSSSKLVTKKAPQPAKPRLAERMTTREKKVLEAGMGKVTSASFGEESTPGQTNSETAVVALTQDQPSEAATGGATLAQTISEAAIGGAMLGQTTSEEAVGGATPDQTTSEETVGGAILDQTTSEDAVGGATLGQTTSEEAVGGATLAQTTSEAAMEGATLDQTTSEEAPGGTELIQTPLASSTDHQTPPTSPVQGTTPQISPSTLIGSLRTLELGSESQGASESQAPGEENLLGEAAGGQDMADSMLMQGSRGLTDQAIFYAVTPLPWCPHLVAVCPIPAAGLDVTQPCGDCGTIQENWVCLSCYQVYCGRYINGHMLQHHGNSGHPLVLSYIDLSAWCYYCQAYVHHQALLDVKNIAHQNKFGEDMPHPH

Cc1cc(C)cc(C(=O)NOCCCCCC(=O)NO)c1 [19i]
in vitro IC50 HDAC6 [1]: sub-micromolar | IC50 [2]: 402 nM | in vitro IC50 HDAC2 [3]: sub-micromolar | caspase 3/7 activity [4]: significant, albeit moderately increased
